Where two headings read alike, the source gives them in different places.
Target: T1, Cbl-b (truncated variant, UniProt number Q13191) (Homo sapiens, UniProt Q13191)
T1 construct: made in house
Assay: Cbl-b activity assay (TR-FRET, interaction of Cbl-b with UbcH5B-Ub)
Assay type: biochemical

[1] = Biological Example 1A, low or high conditions not stated, read-out: IC50 values in the Cbl-b inhibition assay of Biological Example 1A
[2] = high conditions: 100 mM NaCl, 60 nM Src kinase, 12 nM Cbl-b, read-out: Cbl-b activity IC50

T1 sequence (Q13191 36-427): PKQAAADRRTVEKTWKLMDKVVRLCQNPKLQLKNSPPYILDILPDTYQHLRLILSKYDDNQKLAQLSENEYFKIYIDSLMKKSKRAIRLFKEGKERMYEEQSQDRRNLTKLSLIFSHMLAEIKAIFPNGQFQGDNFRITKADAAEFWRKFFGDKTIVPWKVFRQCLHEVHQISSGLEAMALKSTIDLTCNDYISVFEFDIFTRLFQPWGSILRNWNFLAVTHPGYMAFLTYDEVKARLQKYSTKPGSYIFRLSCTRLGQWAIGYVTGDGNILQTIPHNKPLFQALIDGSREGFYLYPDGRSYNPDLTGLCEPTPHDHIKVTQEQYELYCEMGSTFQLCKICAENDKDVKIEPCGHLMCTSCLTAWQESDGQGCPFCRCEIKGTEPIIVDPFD

| SMILES | IC50 [1] | IC50 [2] | IC50 (low conditions: 50 mM NaCl, 30 nM Src kinase, 12 nM Cbl-b, read-out: Cbl-b activity IC50) |
| --- | --- | --- | --- |
| C[C@H](Sc1nncn1C)c1cccc(NC(=O)N2Cc3cnn(C)c3C2)c1 [Example 46, (S)-1-methyl-N-(3-(1-((4-methyl-4H-1,2,4-triazol-3-yl)thio)ethyl)phenyl)-4,6-dihydropyrrolo[3,4-c]pyrazole-5(1H)-carboxamide] | 1 to 5 µM | 1 to 5 µM |  |
| C[C@H](Cc1nncn1C)c1cccc(NC(=O)N2CCOc3cccnc32)c1 [Example 10, (R)—N-(3-(1-(4-methyl-4H-1,2,4-triazol-3-yl)propan-2-yl)phenyl)-2,3-dihydro-4H-pyrido[3,2-b][1,4]oxazine-4-carboxamide] | < 0.1 µM | < 0.1 µM |  |
| C[C@H](Sc1nncn1C)c1cccc(-n2cc(-c3ccc(C(=O)O)cc3)nn2)c1 [Example 81, (S)-4-(1-(3-(1-(4-methyl-4H-1,2,4-triazol-3-ylthio)ethyl)phenyl)-1H-1,2,3-triazol-4-yl)benzoic acid] | ≥ 5 µM | ≥ 5 µM |  |
| CNC(=O)c1cccc(-c2cnn(-c3cccc([C@H](C)Sc4nncn4C)c3)n2)c1 [Example 93, (S)—N-methyl-3-(2-(3-(1-(4-methyl-4H-1,2,4-triazol-3-ylthio)ethyl)phenyl)-2H-1,2,3-triazol-4-yl)benzamide] | 1 to 5 µM | 1 to 5 µM |  |
| C[C@H](Cc1nncn1C)c1cccc(NC(=O)N2CCC(C(=O)O)(C(F)(F)F)C2)c1 (stereo partly drawn) [Example 15, 1-((3-((R)-1-(4-methyl-4H-1,2,4-triazol-3-yl)propan-2-yl)phenyl)carbamoyl)-3-(trifluoromethyl)pyrrolidine-3-carboxylic acid] | 1 to 5 µM | 1 to 5 µM |  |
| CC(Sc1nncn1C)c1cccc(C(=O)Nc2cc3ccccc3cn2)c1 (centres unmarked) [Example 122, N-(isoquinolin-3-yl)-3-(1-((4-methyl-4H-1,2,4-triazol-3-yl)thio)ethyl)benzamide] | < 0.1 µM |  | < 0.1 µM |
| COc1cc(N2CCOCC2)ccc1NC(=O)Nc1cccc([C@H](C)Sc2nncn2C)c1 [Example 148, (S)-1-(2-methoxy-4-morpholinophenyl)-3-(3-(1-((4-methyl-4H-1,2,4-triazol-3-yl)thio)ethyl)phenyl)urea] |  | ≥ 5 µM |  |
| CCn1cc(CN(C)C(=O)Nc2cccc([C@H](C)Sc3nncn3C)c2)cn1 [Example 152, (S)-1-((1-ethyl-1H-pyrazol-4-yl)methyl)-1-methyl-3-(3-(1-((4-methyl-4H-1,2,4-triazol-3-yl)thio)ethyl)phenyl)urea] |  | ≥ 5 µM |  |
| CC(C)C1CN(C(=O)Nc2cccc([C@H](C)Sc3nncn3C)c2)CCO1 (stereo partly drawn) [Example 51, 2-isopropyl-N-(3-((S)-1-((4-methyl-4H-1,2,4-triazol-3-yl)thio)ethyl)phenyl)morpholine-4-carboxamide] |  | ≥ 5 µM |  |
| C[C@H](Sc1nncn1C)c1cccc(-c2n[nH]c3ccccc23)c1 [Example 107, (S)-3-(3-(1-((4-methyl-4H-1,2,4-triazol-3-yl)thio)ethyl)phenyl)-1H-indazole] |  | 0.1 to 1 µM |  |
| CC(Sc1nncn1C)c1cccc(-n2cc(-c3ccccc3)nn2)c1 (centres unmarked) [Example 167, 1-(3-(1-((4-methyl-4H-1,2,4-triazol-3-yl)thio)ethyl)phenyl)-4-phenyl-1H-1,2,3-triazole] | 1 to 5 µM | 1 to 5 µM |  |
| C[C@H](Sc1nncn1C)c1cccc(NC(=O)N2CCC2)c1 [Example 164, (S)—N-(3-(1-(4-methyl-4H-1,2,4-triazol-3-ylthio)ethyl)phenyl)azetidine-1-carboxamide] |  | ≥ 5 µM |  |
| C[C@H](Sc1nncn1C)c1cccc(NC(=O)N2CCn3nccc3C2)c1 [Example 44, (S)—N-(3-(1-((4-methyl-4H-1,2,4-triazol-3-yl)thio)ethyl)phenyl)-6,7-dihydropyrazolo[1,5-a]pyrazine-5(4H)-carboxamide] |  | ≥ 5 µM |  |
| C[C@H](Sc1nncn1C)c1cccc(-n2cc(-c3ccc(CO)cc3)nn2)c1 [Example 85, (S)-(4-(1-(3-(1-(4-methyl-4H-1,2,4-triazol-3-ylthio)ethyl)phenyl)-1H-1,2,3-triazol-4-yl)phenyl)methanol] | ≥ 5 µM | ≥ 5 µM |  |
| C[C@H](Sc1nncn1C)c1cccc(NC(=O)N2CCC23CCN(C)CC3)c1 [Example 126, (S)-7-methyl-N-(3-(1-((4-methyl-4H-1,2,4-triazol-3-yl)thio)ethyl)phenyl)-1,7-diazaspiro[3.5]nonane-1-carboxamide] |  | ≥ 5 µM |  |
| C[C@H](Cc1nncn1C)c1cccc(NC(=O)N2CCCc3cccnc32)c1 [Example 9, (R)—N-(3-(1-(4-methyl-4H-1,2,4-triazol-3-yl)propan-2-yl)phenyl)-3,4-dihydro-1,8-naphthyridine-1(2H)-carboxamide] | 0.1 to 1 µM | 0.1 to 1 µM |  |
| C[C@H](Sc1nncn1C)c1cccc(-n2ncc(-c3ccc(Cl)cc3)n2)c1 [Example 72, (S)-4-(4-chlorophenyl)-2-(3-(1-((4-methyl-4H-1,2,4-triazol-3-yl)thio)ethyl)phenyl)-2H-1,2,3-triazole] | 1 to 5 µM | 1 to 5 µM |  |

| SMILES | IC50 [1] | IC50 [2] | IC50 (low conditions: 50 mM NaCl, 30 nM Src kinase, 12 nM Cbl-b, read-out: Cbl-b activity IC50) |
| --- | --- | --- | --- |
| C[C@H](Sc1nncn1C)c1cccc(-n2ncc(-c3ccc(C#N)cc3)n2)c1 [Example 88, (S)-4-(2-(3-(1-(4-methyl-4H-1,2,4-triazol-3-ylthio)ethyl)phenyl)-2H-1,2,3-triazol-4-yl)benzonitrile] | 0.1 to 1 µM | 0.1 to 1 µM |  |
| CC(Sc1nncn1C)c1ccnc(-c2cc(-c3ccccc3)no2)c1 (centres unmarked) [Example 71, 5-(4-(1-((4-methyl-4H-1,2,4-triazol-3-yl)thio)ethyl)pyridin-2-yl)-3-phenylisoxazole] | ≥ 5 µM | ≥ 5 µM |  |
| COc1cccc(-c2cc(-c3cccc(C(C)Sc4nncn4C)c3)[nH]n2)c1 (centres unmarked) [Example 104, 3-((1-(3-(3-(3-methoxyphenyl)-1H-pyrazol-5-yl)phenyl)ethyl)thio)-4-methyl-4H-1,2,4-triazole] | 1 to 5 µM | 1 to 5 µM |  |
| CNC(=O)C1(C(F)(F)F)CCN(C(=O)Nc2cccc([C@H](C)Sc3nncn3C)c2)C1 (stereo partly drawn) [Example 50, N^3-methyl-N^1-(3-((S)-1-((4-methyl-4H-1,2,4-triazol-3-yl)thio)ethyl)phenyl)-3-(trifluoromethyl)pyrrolidine-1,3-dicarboxamide] | 1 to 5 µM | 1 to 5 µM |  |
| C[C@H](Cc1nncn1C)c1cccc(-c2n[nH]c3c(N4CC[C@H](O)C4)cc(C(F)(F)F)nc23)c1 [Example 111, (S)-1-(3-(3-((R)-1-(4-methyl-4H-1,2,4-triazol-3-yl)propan-2-yl)phenyl)-5-(trifluoromethyl)-1H-pyrazolo[4,3-b]pyridin-7-yl)pyrrolidin-3-ol] |  | 0.1 to 1 µM |  |
| C[C@@H](Sc1nncn1C)c1cccc(-c2cc(-c3ccccc3)n[nH]2)c1 [Example 103, (R)-4-methyl-3-((1-(3-(3-phenyl-1H-pyrazol-5-yl)phenyl)ethyl)thio)-4H-1,2,4-triazole] | ≥ 5 µM | ≥ 5 µM |  |
| C[C@H](Cc1nncn1C)c1cccc(C(=O)Nc2cccc(C(F)(F)F)n2)c1 [Example 18, (R)-3-(1-(4-methyl-4H-1,2,4-triazol-3-yl)propan-2-yl)-N-(6-(trifluoromethyl)pyridin-2-yl)benzamide] | ≥ 5 µM | ≥ 5 µM |  |
| CNC(=O)c1cccc(-c2cn(-c3cccc([C@H](C)Sc4nncn4C)c3)nn2)c1 [Example 94, (S)—N-methyl-3-(1-(3-(1-(4-methyl-4H-1,2,4-triazol-3-ylthio)ethyl)phenyl)-1H-1,2,3-triazol-4-yl)benzamide] | ≥ 5 µM | ≥ 5 µM |  |
| C[C@H](Sc1nncn1C)c1cccc(-c2cc(-c3ccc(C#N)cc3)no2)c1 [Example 61, (S)-4-(5-(3-(1-(4-methyl-4H-1,2,4-triazol-3-ylthio)ethyl)phenyl)isoxazol-3-yl)benzonitrile] |  | 1 to 5 µM |  |
| C[C@H](Cc1nncn1C)c1cccc(-c2n[nH]c3c(CN4CC[C@H](F)C4)cc(C(F)(F)F)nc23)c1 [Example 113, 3-[(2R)-2-[3-(7-[[(3S)-3-fluoropyrrolidin-1-yl]methyl]-5-(trifluoromethyl)-1H-pyrazolo[4,3-b]pyridin-3-yl)phenyl]propyl]-4-methyl-4H-1,2,4-triazole] | < 0.1 µM | < 0.1 µM |  |
| C[C@H](Sc1nncn1C)c1cccc(NC(=O)N2CCCc3ccccc32)c1 [Example 8, (S)—N-(3-(1-((4-methyl-4H-1,2,4-triazol-3-yl)thio)ethyl)phenyl)-3,4-dihydroquinoline-1(2H)-carboxamide] |  | ≥ 5 µM |  |
| C[C@H](Sc1nncn1C)c1cccc(NC(=O)N2CCC23CCOC3)c1 (stereo partly drawn) [Example 130, N-(3-((S)-1-((4-methyl-4H-1,2,4-triazol-3-yl)thio)ethyl)phenyl)-6-oxa-1-azaspiro[3.4]octane-1-carboxamide] |  | ≥ 5 µM |  |
| Cn1cnnc1C(F)(F)[C@](C)(F)c1cccc(NC(=O)N2CC3(CNC3)Oc3cccnc32)c1 [Example 28, (R)—N-(3-(1,1,2-trifluoro-1-(4-methyl-4H-1,2,4-triazol-3-yl)propan-2-yl)phenyl)spiro[azetidine-3,2′-pyrido[3,2-b][1,4]oxazine]-4′(3′H)-carboxamide] |  | < 0.1 µM |  |
| C[C@H](Sc1nncn1C)c1cccc(-n2ncc(-c3ccccc3)n2)c1 [Example 99, (S)-2-(3-(1-((4-methyl-4H-1,2,4-triazol-3-yl)thio)ethyl)phenyl)-4-phenyl-2H-1,2,3-triazole] | 0.1 to 1 µM | 0.1 to 1 µM |  |
| C[C@H](Sc1nncn1C)c1cccc(C(=O)Nc2ccc3ccccc3n2)c1 [Example 35, (S)-3-(1-((4-methyl-4H-1,2,4-triazol-3-yl)thio)ethyl)-N-(quinolin-2-yl)benzamide] |  | ≥ 5 µM |  |
| C[C@H](Cc1nncn1C)c1ccnc(C(=O)Nc2cccc(C(F)(F)F)n2)c1 [Example 14, 4-[(2R)-1-(4-methyl-4H-1,2,4-triazol-3-yl)propan-2-yl]-N-[6-(trifluoromethyl)pyridin-2-yl]pyridine-2-carboxamide] | 0.1 to 1 µM | 0.1 to 1 µM |  |

Source: US12653809B2, “Urea, amide, and substituted heteroaryl compounds for CBL-B inhibition” (Nurix Therapeutics, Inc., priority 2019, dated 2026)
